Data from US9907852B2, “Anticancer agent and side-effect-alleviating agent” (National University Corporation University of Toyama, priority 2014, dated 2018).

What was measured:
[1] = tested on: Human pancreas cancer cells Miapaca-2 cells; test: Survival in orthotopic graft model of pancreas cancer (Test Example 4); format: in vivo, mice
Procedure: Human pancreas cancer cells Miapaca-2 cells were suspended in a highly concentrated Matrigel solution (BD bioscience) at 5×10^6 cells/50 μl. A female BALB/cAJcl-nu/nu mice (8 weeks of age) (CLEA Japan, Inc.) were subjected to laparotomy under anesthesia, the above-prepared cell suspension was poured into pancreatic tissue and solidified, followed by suture and closing.
The mice after transplantation were divided into 4 groups (7 mice in one group), that is, an untreated group (Non treat); a group to which 250 mg/kg of Burdock Fruit extract (Kracie Pharm., GBS-01) containing 10% of arctigenin was orally administered every day (GBS-01); a group which was intraperitoneally given 150 mg/kg of gemcitabine (Eli Lilly & Co.) twice a week (Gemcitabine); and a group of combined administration of them(Combination), and the treatment was continued until all of the mice died.
The survival rate was calculated according to the Kaplan-Mayer method by making a curve of survival rate and calculating the median of survival rate (MST) (GraphPad-PRISM 6.2, MDF Co.). The significant difference was evaluated by means of Logrank (Mantel-COX) and Gehan-Breslow-Wilcoxon test. The calculated results were shown on an upper graph of FIG. 5.

[2] = tested on: Human pancreatic cancer cells Miapaca-2; test: Proportion of the cancer stem cells in tumor by flow cytometry, Miapaca-2 (Test Example 3); format: in vivo, mice; conditions: after the therapeutic test (4 weeks)
Procedure: Human pancreatic cancer cells Miapaca-2 (ATCC CRL 1420) (5×10^6 cells/200 μl) were transplanted subcutaneously under the armpit of BALB/cAJcl nu/nu mice (CLEA Japan, Inc.) . After feeding for about 2-3 weeks, those of which cancer grew to about 100 mm^3 were selected and employed as the subject mice to be treated.
The subject mice of treatment were divided into 4 groups, that is, (a) an untreated group, (b) a group administered gemcitabine, (c) a group administered a Burdock Fruit extract, and (d) a group administered in combination with a Burdock Fruit extract and gemcitabine (combined administration group), and the treatment was continued for 4 weeks. The Burdock Fruit extract, 250 mg/kg prepared in Example 1 (25 mg/kg or more as arctigenin), was orally administered everyday (for 5 times a week). As gemcitabine, an intravenous drip preparation of gemcitabine (Eli Lilly and Co.) was used, and 150 mg/kg was intraperitoneally given twice a week.
The cancer cells were recovered from the tumor tissue after termination of the treatment test, and using the triple positive markers, CD24, CD44 and ESA (CD326) as well as the double positive markers, CD133 and CD44, and the proportion of CD44^+, CD24^+, CD326^+ cells (triple positive) and CD133^+, CD44^+ cells (double positive) was evaluated. In the evaluation, a FACS ARIA II flow cytometer (BD bioscience) was used.

[3] = Toxicity test by concomitant repeated-dose administration (Test Example 8); format: in vivo, mice; conditions: after 7 weeks
Procedure: SIX SCR-ICR mice (female of 6 weeks of age) (SLC Co.) were used in each of 4 groups, that is, (a) untreated group, (b) gemcitabine administered group, (c) Burdock Fruit extract administered group, and (d) group of combined administration of Burdock Fruit extract and gemcitabine (combined administration group). In each group, each of the therapeutic agents was administered continuously for a period of 7 weeks.
Burdock Fruit extract, 250 mg/kg prepared in Example 1 (25 mg/kg as arctigenin) , was orally administered 5 times a week. As gemcitabine, an intravenous drip preparation of gemcitabine (Eli Lilly and Co.) was used, and 100 mg/kg was intraperitoneally administered once a week.
During the term of administration for about 7 weeks, measurement of body weight, observation of skin and oral state, as well as observation of feces were practiced every 5 days. As a result, there was recognized no symptom which reminded any side effect such as inflammation in skin and mucous membrane, depilation or diarrhea in all of the administered groups. In addition, generally there was no difference of significance in body weight which is an indicator of nausea, loss of appetite, side effect in digestive system, and the like.
After termination of administration, the mice were anesthetized deeply, subjected to thoracotomy and complete blood drawing from heart. In addition, kidney, liver, spleen and lung were recovered, the weight was measured.
In addition, a hemocytic and biochemical examination was carried out using the collected blood.

[4] = tested on: Human pancreatic cancer cell Suit 2; test: Tumor size in mice transplanted subcutaneously with Suit 2 (Test Example 1); format: in vivo; conditions: after 4 weeks from the starting of treatment; extract 0.5% (w/w) in feed, bevacizumab 5 mg/kg i.p. once a week, gemcitabine 100 mg/kg i.p. twice a week
Procedure: (§1) Human pancreatic cancer cell Suit 2 (1×10^6 cells) was transplanted subcutaneously to BALB/cAJc1-nu/nu mice (CLEA Japan, Inc.) . On 21th day after the transplantation, the transplanted mice were divided into 4 groups, that is, (a) an untreated group, (b) a group to which a Burdock Fruit extract was administered, (c) a group to which bevacizumab was administered, and (d) a group to which gemcitabine was administered, and the treatment was continued for 4 weeks. The Burdock Fruit extract of Example 1 was mixed into feed at a rate of 0.5% (w/w) and the resultant was given to mice. The ingestion of feed was 3 to 5 g a day for a mouse, from which the intake of arctigenin was calculated as […]. Bevacizumab, as Avastin 100 mg/4 ml for intravenous injection (Chugai Pharm. Co.) , was intraperitoneally injected at a dose of 5 mg/kg once a week. As gemcitabine, an intravenous drip preparation of gemcitabine (Eli Lilly and Co.) was intraperitoneally injected at a dose of 100 mg/kg twice a week.
The average tumor size after 4 weeks from the starting of treatment in the respective groups was as follows: (a) 228 mm^2 in the untreated group; (b) 189 mm^2 in the Burdock Fruit extract administered group; (c) 56 mm^2 in the bevacizumab administered group to which was; and (d) 68 mm^2 in the gemcitabine administered group.

[5] = tested on: Human pancreatic cancer cells Miapaca-2; test: Tumor weight in mice transplanted subcutaneously with Miapaca-2 (Test Example 3); format: in vivo; conditions: after 4 weeks; extract 250 mg/kg oral 5 times a week, gemcitabine 150 mg/kg i.p. twice a week
Procedure: Human pancreatic cancer cells Miapaca-2 (ATCC CRL 1420) (5×10^6 cells/200 μl) were transplanted subcutaneously under the armpit of BALB/cAJcl nu/nu mice (CLEA Japan, Inc.) . After feeding for about 2-3 weeks, those of which cancer grew to about 100 mm^3 were selected and employed as the subject mice to be treated. The subject mice of treatment were divided into 4 groups, that is, (a) an untreated group, (b) a group administered gemcitabine, (c) a group administered a Burdock Fruit extract, and (d) a group administered in combination with a Burdock Fruit extract and gemcitabine (combined administration group), and the treatment was continued for 4 weeks. […] After termination of the therapeutic test, the tumor weight was measured in the respective groups.

[6] = tested on: Human pancreatic cancer cell Suit 2; test: Uptake of gadolinium DTPA in tumor tissue by MRI, blood stream in tumor (Test Example 1); format: in vivo, mice; conditions: after intravenous injection of gadolinium DTPA; after 4 weeks of treatment
Procedure: as §1
After 4 weeks from the starting of treatment, the uptake of gadolinium DTPA in the mouse tumor tissue was evaluated in the respective groups. […] From this photograph the signal intensity of gadolinium DTPA in the tumor tissue was measured. […]

tumor tissue [7] = test: Occurrence of ulcer in the tumor tissue (Test Example 2); format: in vivo; conditions: rate of mice which generated ulcer in the tumor; administration over 5 weeks
Text: In the course of the growth of tumor, nutrition and oxygen have to be supplied over the grown entire tumor tissue through the blood vessels. In most of tumor, however, it is considered that these are not supplied sufficiently because of immature angioplasty to cause a partial necrosis of tissue and an ulcerous portion occurs. In this situation, in order to inspect the effect of normalization of intra-tumor blood stream by the above described Burdock Fruit extract, the occurrence of ulcer in the tumor tissue after the respective treatments was observed.
(§2) For tumor tissue, a single administration of a Burdock Fruit extract, a single administration of bevacizumab and a combined administration of a Burdock Fruit extract and bevacizumab were performed over a period of 5 weeks. […] Thus, the suppression effect on ulcer generation in tumor was recognized in the Burdock Fruit extract-administered group and the concomitantly administered group compared with that in the untreated group and the bevacizumab-administered group. In the bevacizumab-administered group, the inhibitory effect for ulcer generation was recognized in comparison with the untreated group, though it was temporal. This effect is considered to be an inhibitory activity of bevacizumab for angiogenesis. […]

[8] = tested on: Human colorectal cancer cells LS174T; test: Proportion of cancer stem cells in tumor by flow cytometry, LS174T (Test Example 7); format: in vivo, mice; conditions: after termination of the treatment test (4 weeks)
Procedure: (§3) On the 14th day, the transplanted mice were divided into 4 groups, that is, (a) an untreated group, (b) a bevacizumab-administered group, (c) a Gogoshi extract-administered group, and (d) a group of combined administration of a Burdock Fruit extract and bevacizumab (combined administration group), and the treatment was continued for 4 weeks. When a Burdock Fruit extract was administered, 250 mg/kg of Burdock Fruit extract (25 mg/kg as arctigenin) of Example 1 was orally administered 6 times a week. Bevacizumab, as Avastin for intravenous drip injection (100 mg/4 ml) (Chugai Pharm. Co.), was intraperitoneally injected at a dose of 5 mg/kg once a week.
The cancer cells were then recovered from the tumor tissue, and using the double positive markers, CD133 and CD44, the proportion of CD133^+, CD44^+ cells in tumor after termination of the treatment test was evaluated by means of a FACS ARIA II flow cytometer (BD bioscience).

[9] = tested on: Human colorectal cancer cells LS174T; test: Tumor weight in mice transplanted subcutaneously with LS174T (Test Example 7); format: in vivo; conditions: after 4 weeks; extract 250 mg/kg oral 6 times a week, bevacizumab 5 mg/kg i.p. once a week
Procedure: as §3
After termination of the therapeutic test, the tumor weight was measured in the respective groups. As results, the tumor weight after termination of the therapeutic test was as follows: 2.51 g in the untreated group, 1.33 g in the bevacizumab administered group, 1.25 g in the Burdock Fruit extract administered group, and 0.68 g in the combined administration group. Accordingly, in any group including the bevacizumab administered group, the Burdock Fruit extract administered group and the combined administration group, the inhibition of increase of tumor weight was recognized compared with the untreated group. […]

tumor tissue [10] = test: Survival period after 5 weeks of treatment (Test Example 2); format: in vivo, mice; conditions: treatment terminated after 5 weeks, survival followed up
Procedure: as §2, with “angiogenesis. On the other hand, when the combined administration of a Burdock Fruit extract in addition to bevacizumab, the inhibitory effect on ulcer generation was raised. This is considered that, in addition to the improved effect for blood stream in tumor by a single preparation of bevacizumab, the blood stream was further improved by combined administration of a Burdock Fruit extract which suppressed an occurrence of a hypoxia and undernutritional region and further suppressed angiogenesis. Thus, since the combined administration of arctigenin can markedly reduce a hypoxia and undernutritional region, it is expected to suppress the malignant transformation of cancer.” for “angiogenesis.”

[11] = gemcitabine 100 mg/kg i.p. once a week

| Molecule | median of survival time (MST) ([1]; GBS-01 250 mg/kg oral every day, gemcitabine 150 mg/kg i.p. twice a week, until all mice died) | prolongation of MST ([1]; against the untreated group (65 days)) | ratio of CD133+, CD44+ cells (double positive) in tumor [2] | ratio of CD44+, CD24+, CD326+ cells (triple positive) in tumor ([2]; average of 4 samples) | hematocrit value (in words) [3] | hemoglobin value (in words) [3] | weight/body weight rate (%) of liver, lowering compared with the untreated group [3, 11] | weight/body weight rate (%) of spleen, lowering compared with the untreated group [3, 11] | number of erythrocytes compared with the untreated group ([3]; value as % of untreated) | number of leukocytes compared with the untreated group ([3]; value as % of untreated) | number of platelets compared with the untreated group ([3]; value as % of untreated) | ALT, rise compared to the untreated group ([3]; hepatopathy marker) | AST, rise compared to the untreated group ([3]; hepatopathy marker) | average tumor size [4] | tumor weight [5] | increase of signal intensity in the central part of tumor tissue (in words) [6] | duration until the generation of ulcer reached 50% (tumor tissue [7]) | proportion of CD133+, CD44+ cells (double positive) in tumor [8] | tumor weight [9] | 50% survival period (tumor tissue [10]) |
| --- | --- | --- | --- | --- | --- | --- | --- | --- | --- | --- | --- | --- | --- | --- | --- | --- | --- | --- | --- | --- |
| Nc1ccn([C@@H]2O[C@H](CO)[C@@H](O)C2(F)F)c(=O)n1 [gemcitabine] | 86 days | 32.3% | 3.5% | 1.6% | lowering | lowering | about 20% | about 20% | approximately 87% | approximately 50% | approximately 70% | 102% | 46% | 68 mm^2 | 1.24 g | no increase | – | – | – | – |
| bevacizumab | – | – | – | – | – | – | – | – | – | – | – | – | – | 56 mm^2 | – | tendency of increasing | 10 days | 0.552% | 1.33 g | 107 days |
